This is an account of results in patent publication US8741965B2, “Method of administering a pheromone composition to an animal to modify the animals behavior over an extended period of time” (Sergeant's Pet Care Products, Inc., priority 2011, dated 2014).

Marks after values point to notes of the source that are not given here.

One experiment relates to dogs. The experiment is described as follows: Spray to face of dogs, heart rate for two hours (Example 10). It counts as in vivo, dog. How it is done:
A spray composition comprising rabbit pheromone as an INTEROMONE® was prepared in accordance with Example 9. Four dogs were fitted with cloth jackets that contained electrodes to measure their heart rate. One dog was sprayed with the 2-methylbut-2-enal composition, one dog was sprayed with a placebo, and two dogs were sprayed with pheromone-based products currently on the market for purposes of modifying behavior. […] Data were collected for two hours following application of the spray to the facial/snout region of the four dogs. The control period was indicated as time zero (“0”) on FIG. 1 and FIG. 2.

A further experiment concerns cat. In words: Collar containing rabbit pheromone worn by cats (Example 7). As to conditions: collar worn by a cat. It counts as in vivo. The text has this:
A collar containing 2-methylbut-2-enal can be prepared in accordance with Examples 1 or 2.

The test system of the next experiment is adult anxious dogs. In words: Collars, heart rate and behavior in adult anxious dogs, Latin square, foghorn startle (Example 6). It counts as in vivo, dog. How it is done:
The objective of this study was to assess efficacy of pheromones/INTEROMONE® compositions to modulate heart rate and behavior in adult anxious dogs (trembling, cowering, shy). The dogs (8.1±0.18 kg; estimated 5-12 yr intact males) were obtained from a local research facility. Body weights and feed intake were recorded. Each dog was housed in a separately ventilated room with a minimum of 12 m^2 of floor space. Heart rate (HR) and surface temperature was measured using a telemetry system (Data Science International, St. Paul, Minn.). Behavior was recorded on a DVR and later reviewed by a trained individual. A scan sample was used with a recording interval of 5 min over 24 hours.
The dogs were treated with four different treatments on different days: Placebo collar (no Pheromone/INTEROMONE®), Pheromone only collar (Serg), Rabbit pheromone as INTEROMONE® collar (RP) (prepared in accordance with Example 1), and INTEROMONE® plus Pheromone collar (Serg+RP) (prepared in accordance with Example 3). At the end of 24 hours with a given collar, each dog was startled with a 110 db foghorn placed 12 cm from the dog's head while behavior and heart rate were recorded. Each dog received each treatment in a Latin square design with repeated measures over time. This model allowed evaluation of effects of treatment, dog, treatment by dog, time, treatment by time and dog by time.

The test system of a further experiment is rabbit pups. As to conditions: presented on its own to rabbit pups; Schaal et al. 2003; cited from earlier work.
Another experiment concerns nervous dogs. The experiment is described as follows: Example 11 Study 2: behavior and heart rate after collar or spray with startle. The experiment is classed as in vivo, dog. The source says: Eight dogs were obtained from a local contract research facility and assessment was made as to general dog health, behavior and heart rate. The dogs were estimated to be 2 to 7 years of age, mixed breed, and weighed averagely 8.1±0.18 kg at the start of the studies. […] Upon arrival each dog was bathed using shampoo containing flea and tick medicine (Hartz Mountain Corp. Secaucus, N.J. USA), and their body hair was shaved. Each dog was kept in a single room, which had 100% fresh air intake and exhaust. The dogs were fed twice (am and pm) per day ad libitum. At that time, the room was cleaned and the dogs obtained extra exercise. Water was available ad libitum.
Dog behavior was captured on video media at a sampling rate of 30 frames per second. Video records were reviewed in real time (with tape playing 30 frames per second). A scan sampling method was used to record dog behaviors each minute or each 5 minutes depending on the particular study. If the sample period was 120 minutes with four periods (0-30=0, 30-60=30, 60-90=60, and 90-120-90 min), then a scan sample was recorded each 1 minute. If the sample period was 24 hours, then the scan sample was collected each 5 minutes and summarized each hour. For example, pacing is when a dog walks in a stereotyped manner for minutes to hours. Because it was not easy to distinguish walking from pacing, the behaviors were merged. In addition, the video records could not clearly distinguish lying down and awake versus lying down and sleeping, therefore there was no separate description for these two behaviors.
Heart rate during the studies was measured by the use of a non-invasive telemetry system (Data Science International, St. Paul, Minn., USA). Leads were placed in contact with the dogs' shaved skin. Sensors measured heart rate, surface temperature and general activity. Data were transmitted to a receiving computer in another room. The sampling rate varied with the study, but was 5 seconds for the first two hours after treatments and then each 1 minute for 24 hours (depending on the particular study). For surface temperature measurements of the dog subjects, a thermistor was located against the skin of each dog. It recorded the surface temperature to the neared 0.1° C. on the same interval as the heart rate data.
Behavior and physiological data (heart rate and surface temperature) were analyzed by least squares analysis of variance using SAS (2011) software and the general linear models procedures. The experimental design of each study was a specialized randomized complete block in a Latin square design with data collected as a split plot over time. Dogs represented the blocks. Each dog received each treatment randomly in successive days or weeks. The statistical model included effects of treatment (TRT), dog, dog by treatment (TRT*DOG; error term used to assess treatment and dog effects), time (HR), treatment by time (TRT*HR), and residual error (SE; used to test remaining effects). Behavior data were collected and analyzed as counts per time period, but for clarity of presentation, the data are reported as percentage of time dogs engaged in each behavior.
In Study 2, the dogs were exposed to the same treatments as in Study 1, except a startle was also applied. An aerosol can (Pet Corrector, The Company of Animals, Surrey, UK) was used to make a loud hissing noise and a spray of liquid as a startle. The protocol involved spraying the Rabbit Pheromone at 0, 30, 60, and 90 min (RP; 1 μg/mL) or collar application (PLACEBO, SERG, or DAPC) at time zero. Each dog was startled at 45 minutes. Data were recorded for 120 minutes. Data reporting periods were: 0 (0-30 min), 30 (30-60 min), and 90 (90-120 min).

The mark [1] stands for this setting: 120 minutes after startle, SERG, DAPC collars, RP spray 1 μg/mL.

Consider `C/C=C(\C)C=O` [RP, 2-methylbut-2-enal], for which the “reduction of average dog heart rate” value in the experiment with dogs (FIG. 1) is on record as 24.5 beats/min per hour. In addition, the “heart rate reduction over the two hour period” value in the experiment with dogs (compared to marketed products and placebo) is on record as 30%. In addition, in the experiment on cat, the “change in cat behavior” value is reported as “significant change in behavior towards a calmer demeanor”. Also, in the experiment with adult anxious dogs (collar 24 h, 110 db foghorn, placebo 157.8±7.2, P<0.01), the HR after startle came out at 124.5±7.2 bpm. In the experiment with adult anxious dogs (collar, placebo 3.8±0.02, P<0.05), the time pacing was 3.0±0.2%. For the same compound, the time lying down with adult anxious dogs (collar, placebo 63.2±4.8, P=0.01) was 87.4±5.4 % of time. The “effect on dog HR (summary)” value with adult anxious dogs (collars) is on record as “lowered HR”. In the experiment on rabbit pups, the “concentration sufficient to elicit full nipple search and grasping behavior (as low as)” value is 10 ng/mL. In the experiment on nervous dogs (setting [1]), the Defecate is 0.0 % of time, the Drink is listed as 3.7 % of time, the Eat is listed as 1.2 % of time and the Lick self is listed as 0.0^b % of time. Further, in the experiment with nervous dogs (setting [1]), the Lying down is given as 46.4 % of time, the Pace-walk is given as 19.4 % of time, the Sitting is 53.8 % of time and the Standing is 23.4^b % of time. The Urinate in the experiment with nervous dogs (setting [1]) was 0.0 % of time. In the experiment on nervous dogs (FIGS. 8 and 9), the “lying down and sitting behavior of individual dogs after startle” value is “dogs 2, 3, 6 and 8 spent less time lying down but more time sitting after startle”. Moreover, the “standing behavior after startle” value in the experiment with nervous dogs (in comparison to Placebo or SERG collars) is recorded as “increased standing behavior among RP-sprayed dogs”.
